Among the test systems are OVCAR-4 ovarian; SW-620 colon; LXFL 529 NSCLC; KM20L2 colon; U251 CNS; OVCAR-8 ovarian; HCC-2998 colon; HOP-92 NSCLC; OVCAR-5 ovarian; HL-60(TB) leukemia.
Assay in all cases: NCI anticancer screen, dose series, 48 h

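Dose response: 5 concentrations. Exposure: 48 h. Format: 96-well plates. Endpoint: linear interpolation; highest concentration if not reached. Abbreviation: GI50, concentration required for 50% inhibition of growth. TGI denotes the concentration required for complete inhibition of growth.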

Take `Cc1ccc(S(=O)(=O)NNS(C)(=O)=O)cc1`: the TGI with OVCAR-4 ovarian, with SW-620 colon, in the test on LXFL 529 NSCLC, in the test with KM20L2 colon, in the test on U251 CNS and in the test with OVCAR-8 ovarian was greater than 100 µM throughout. In addition, in the test with HCC-2998 colon, the TGI is greater than 100 µM.
`CC(=O)OCC1OC(n2c(=S)n(-c3ccccc3)c(=O)c3cc(Br)ccc32)C(OC(C)=O)C1OC(C)=O` (stereo not drawn): the TGI in the test with OVCAR-4 ovarian, in the test with SW-620 colon, in the test with LXFL 529 NSCLC, in the test with KM20L2 colon, in the test with U251 CNS and in the test on HOP-92 NSCLC was greater than 100 µM throughout. Further, the TGI with OVCAR-8 ovarian, in the test with OVCAR-5 ovarian and in the test with HCC-2998 colon was greater than 100 µM throughout.
Consider `CC(=O)C1C(=O)C(=O)N(CCN2C(=O)C(=O)C(C(C)=O)C2=O)C1=O` (stereo not drawn), for which the TGI in the test on OVCAR-4 ovarian, in the test on SW-620 colon, in the test with LXFL 529 NSCLC, in the test on KM20L2 colon, in the test with U251 CNS and in the test on HOP-92 NSCLC was greater than 100 µM each time. Besides, the TGI in the test with OVCAR-8 ovarian, in the test with OVCAR-5 ovarian and in the test with HCC-2998 colon was greater than 100 µM each time.
On to `N#Cc1ccc(C2SCc3nc4ccccc4n32)cc1` (stereo not drawn), for which the TGI in the test on OVCAR-4 ovarian, with HL-60(TB) leukemia, with SW-620 colon, with LXFL 529 NSCLC, in the test with KM20L2 colon and in the test with U251 CNS was greater than 100 µM each time. Also, the TGI in the test with OVCAR-8 ovarian and in the test on HCC-2998 colon was greater than 100 µM in each case.
With `Cc1ccc(S(=O)(=O)C2CC2(Cl)Cl)cc1` (stereo not drawn), the TGI is 13.8 µM in the test with OVCAR-4 ovarian; 44.1 µM in the test on SW-620 colon; 34 µM in the test on LXFL 529 NSCLC; greater than 100 µM with KM20L2 colon; greater than 100 µM in the test on U251 CNS; 47.8 µM in the test with HOP-92 NSCLC. The results for the TGI in the test with OVCAR-8 ovarian, in the test with OVCAR-5 ovarian and with HCC-2998 colon were 41 µM, greater than 100 µM and greater than 100 µM, respectively.
Regarding `CCN(CC)C(=S)SS(C)(=O)=O`, the TGI in the test on OVCAR-4 ovarian was 34.7 µM; in the test on HL-60(TB) leukemia, 26.6 µM; with SW-620 colon, 35.2 µM; with LXFL 529 NSCLC, 30 µM; in the test with U251 CNS, 31.5 µM; in the test on HOP-92 NSCLC, 54.2 µM. Further, the TGI in the test with OVCAR-8 ovarian was 39.4 µM; with OVCAR-5 ovarian it was 42.2 µM.
Consider `O=C(N/C(=C\c1ccc(/C=C(\NC(=O)c2ccccc2)c2nc3c(O)nc(S)nc3[nH]2)cc1)c1nc2c(O)nc(S)nc2[nH]1)c1ccccc1`, for which the TGI with OVCAR-4 ovarian, in the test with SW-620 colon, in the test on LXFL 529 NSCLC, in the test on KM20L2 colon, in the test with U251 CNS and with HOP-92 NSCLC was greater than 100 µM in each case. For the same compound, the TGI with OVCAR-8 ovarian, in the test with OVCAR-5 ovarian and with HCC-2998 colon was greater than 100 µM throughout.
With `Cc1c(C(N)=O)sc2nc(C)n(/N=c3\scc(-c4ccccc4)n3Cc3ccccc3)c(=O)c12`, the GI50 with OVCAR-4 ovarian was 2.5 µM; with HL-60(TB) leukemia it was 6.68 µM; in the test on SW-620 colon, 3.16 µM; in the test on U251 CNS, 3.32 µM; with HOP-92 NSCLC, 1.34 µM; in the test on OVCAR-8 ovarian, 3.49 µM. Also, the GI50 is 4.33 µM in the test on OVCAR-5 ovarian and 3.05 µM in the test on HCC-2998 colon. Besides, the TGI in the test with OVCAR-4 ovarian is greater than 100 µM; in the test on HL-60(TB) leukemia, greater than 100 µM; with SW-620 colon, greater than 100 µM; in the test with U251 CNS, greater than 100 µM; in the test with HOP-92 NSCLC it was 5.33 µM; with OVCAR-8 ovarian, greater than 100 µM. The TGI in the test with OVCAR-5 ovarian and in the test on HCC-2998 colon was greater than 100 µM each time.
Consider `COc1cc(C(=O)O[C@H](C(=O)NCCCCNC(=O)[C@@H](OC(=O)c2cc(OC)cc3c(C)cccc23)[C@]2(C)CO2)[C@]2(C)CO2)c2cccc(C)c2c1`, for which the GI50 in the test with OVCAR-4 ovarian was 0.218 µM; with HL-60(TB) leukemia, less than 0.01 µM; in the test with SW-620 colon, less than 0.0111 µM; in the test on U251 CNS, less than 0.01 µM; with HOP-92 NSCLC it was 0.0452 µM; in the test with OVCAR-8 ovarian, 0.0192 µM. Besides, the results for the GI50 with OVCAR-5 ovarian and with HCC-2998 colon were 0.257 µM and 0.0442 µM, respectively. Besides, the TGI in the test on OVCAR-4 ovarian was 2.08 µM; in the test on HL-60(TB) leukemia it was less than 0.01 µM; with U251 CNS, 0.107 µM; with HOP-92 NSCLC, 0.22 µM; in the test on OVCAR-8 ovarian, 0.206 µM; in the test with OVCAR-5 ovarian, 1.05 µM. Further, the TGI with HCC-2998 colon turned out to be 0.343 µM.
For the compound `N#Cc1c(N)nc(N2CCOCC2)c(C#N)c1-c1c(Cl)cccc1Cl`, the GI50 was 13.1 µM in the test on OVCAR-4 ovarian; 4.75 µM in the test with HL-60(TB) leukemia; 5.16 µM in the test on SW-620 colon; 3.89 µM in the test on U251 CNS; 4.68 µM with HOP-92 NSCLC; 14.2 µM in the test with OVCAR-8 ovarian. Moreover, the GI50 in the test on OVCAR-5 ovarian is 6.27 µM; with HCC-2998 colon, 0.0181 µM. The TGI with OVCAR-4 ovarian is greater than 100 µM; with HL-60(TB) leukemia it was 20.9 µM; in the test with SW-620 colon, greater than 100 µM; with U251 CNS, 18.5 µM; in the test on HOP-92 NSCLC it was 46 µM; in the test on OVCAR-8 ovarian it was 63.2 µM. Besides, the figures for the TGI in the test with OVCAR-5 ovarian and in the test on HCC-2998 colon were 35.3 µM and 2.48 µM, respectively.
As to `O=C1NC(=NCCc2ccc(Br)cc2)S/C1=C\c1ccc2ncccc2c1`, the GI50 in the test on OVCAR-4 ovarian was 10.5 µM; with HL-60(TB) leukemia, greater than 25 µM; with SW-620 colon it was greater than 25 µM; in the test on U251 CNS it was greater than 18.9 µM; in the test with HOP-92 NSCLC it was greater than 25 µM; in the test with OVCAR-8 ovarian, greater than 25 µM. For the same compound, the GI50 in the test with OVCAR-5 ovarian and in the test with HCC-2998 colon was greater than 25 µM throughout. The TGI in the test on OVCAR-4 ovarian, with HL-60(TB) leukemia, with SW-620 colon, in the test on U251 CNS, in the test with HOP-92 NSCLC and in the test with OVCAR-8 ovarian was greater than 25 µM in each case. Moreover, the TGI with OVCAR-5 ovarian and in the test on HCC-2998 colon was greater than 25 µM throughout.
`CC(C)(C)[Si](C)(C)OC1[C@@H](COC(=O)NC(=O)CCl)O[C@@H](n2cnc3c(N)ncnc32)[C@H]1O[Si](C)(C)C(C)(C)C` (stereo partly drawn): the GI50 in the test on OVCAR-4 ovarian was 3.89 µM; with HL-60(TB) leukemia it was 4.52 µM; with SW-620 colon it was 1.73 µM; in the test on U251 CNS it was 2.84 µM; in the test on HOP-92 NSCLC, 1.76 µM; with OVCAR-8 ovarian, 1.42 µM. Besides, the GI50 in the test on OVCAR-5 ovarian is 3.11 µM; with HCC-2998 colon, 5.44 µM. Further, the TGI turned out to be 10.7 µM in the test on OVCAR-4 ovarian; 12.3 µM in the test with HL-60(TB) leukemia; 6.54 µM in the test on SW-620 colon; 7.91 µM in the test with U251 CNS; 9.24 µM in the test with HOP-92 NSCLC; 4.45 µM with OVCAR-8 ovarian. Also, the TGI in the test on OVCAR-5 ovarian was determined as 9.55 µM; in the test with HCC-2998 colon, 12.6 µM.

For the origin of these results see PubChem BioAssay (NCI).
